{"source": "ChEMBL document CHEMBL1201862", "about": "“PubChem BioAssay data set” (2004)", "key": {"[1]": {"experiment": "HEp-2 cell cytotoxicity, dose response, cytotoxicity control for RSV inhibitor project, HTS (AID 2410)", "assay_type": "functional", "conditions": "human respiratory syncytial virus"}, "[2]": {"experiment": "inhibitors of SNCA 5'UTR-driven reporter translation, confirmation, H4 neuroglioma cells, luminescence (AID 1988)", "assay_type": "functional, cell-based"}, "[3]": {"molecular_target": "T1, Sphingosine 1-phosphate receptor 4 (Homo sapiens, UniProt O95977)", "T1 sequence (O95977 whole entry)": "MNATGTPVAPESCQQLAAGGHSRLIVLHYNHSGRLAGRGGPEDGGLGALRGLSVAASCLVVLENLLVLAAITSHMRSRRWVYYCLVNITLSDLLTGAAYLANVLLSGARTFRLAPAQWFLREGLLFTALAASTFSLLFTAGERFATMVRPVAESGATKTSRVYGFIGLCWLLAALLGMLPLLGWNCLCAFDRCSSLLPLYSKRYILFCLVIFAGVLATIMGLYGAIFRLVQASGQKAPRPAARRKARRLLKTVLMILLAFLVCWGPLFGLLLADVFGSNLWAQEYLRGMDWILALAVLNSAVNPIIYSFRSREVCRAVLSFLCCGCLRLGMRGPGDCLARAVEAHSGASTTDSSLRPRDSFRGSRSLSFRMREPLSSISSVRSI", "experiment": "Fluorescence dose response cell-based high throughput screening assay for antagonists of the Sphingosine 1-Phosphate Receptor 4 (S1P4). [Related pubchem assays: 1524 (Confirmation in triplicates.), 1510 (Primary screen.)]", "assay_type": "functional"}, "Nonstructural protein 1": {"molecular_target": "Nonstructural protein 1 (Influenza A virus, UniProt Q194T2)", "sequence (Q194T2 whole entry)": "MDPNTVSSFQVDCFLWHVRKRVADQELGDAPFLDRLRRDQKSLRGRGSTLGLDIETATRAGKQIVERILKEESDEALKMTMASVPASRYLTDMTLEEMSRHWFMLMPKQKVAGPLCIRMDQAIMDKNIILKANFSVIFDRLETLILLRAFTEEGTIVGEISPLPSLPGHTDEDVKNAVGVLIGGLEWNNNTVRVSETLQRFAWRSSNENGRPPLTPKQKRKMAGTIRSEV", "assay_type": "functional, Influenza A virus (A/California/07/2009(H1N1))"}, "[4]": {"experiment": "HeLa cell cytotoxicity, dose response, cytotoxicity control for MgcRacGAP inhibitor project (AID 624300)", "assay_type": "functional"}, "[5]": {"molecular_target": "T2, Rac GTPase-activating protein 1 (Homo sapiens, UniProt Q9H0H5)", "T2 sequence (Q9H0H5 whole entry)": "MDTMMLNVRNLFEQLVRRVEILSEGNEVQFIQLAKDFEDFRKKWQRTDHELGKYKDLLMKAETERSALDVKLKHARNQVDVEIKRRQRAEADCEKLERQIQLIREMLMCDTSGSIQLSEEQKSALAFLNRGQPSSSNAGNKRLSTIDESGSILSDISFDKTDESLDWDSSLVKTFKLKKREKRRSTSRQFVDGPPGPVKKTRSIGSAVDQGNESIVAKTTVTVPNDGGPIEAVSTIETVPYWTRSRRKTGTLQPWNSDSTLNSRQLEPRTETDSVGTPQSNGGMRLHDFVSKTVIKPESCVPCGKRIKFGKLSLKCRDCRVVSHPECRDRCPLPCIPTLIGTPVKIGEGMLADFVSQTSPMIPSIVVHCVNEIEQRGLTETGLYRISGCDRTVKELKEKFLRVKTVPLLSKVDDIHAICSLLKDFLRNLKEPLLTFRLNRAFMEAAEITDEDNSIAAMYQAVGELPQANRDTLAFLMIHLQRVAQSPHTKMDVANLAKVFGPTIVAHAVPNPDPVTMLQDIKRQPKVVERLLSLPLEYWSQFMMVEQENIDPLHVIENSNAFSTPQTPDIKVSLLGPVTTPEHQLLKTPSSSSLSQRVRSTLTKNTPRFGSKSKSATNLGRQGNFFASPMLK", "experiment": "MgcRacGAP GTPase-activating activity inhibitors, confirmation, biochemical, ADP Hunter fluorescence, primary and confirmatory (AID 624330)", "assay_type": "functional"}, "Caspase-3": {"molecular_target": "T3, Caspase-3 (Homo sapiens, UniProt P42574)", "T3 sequence (P42574 whole entry)": "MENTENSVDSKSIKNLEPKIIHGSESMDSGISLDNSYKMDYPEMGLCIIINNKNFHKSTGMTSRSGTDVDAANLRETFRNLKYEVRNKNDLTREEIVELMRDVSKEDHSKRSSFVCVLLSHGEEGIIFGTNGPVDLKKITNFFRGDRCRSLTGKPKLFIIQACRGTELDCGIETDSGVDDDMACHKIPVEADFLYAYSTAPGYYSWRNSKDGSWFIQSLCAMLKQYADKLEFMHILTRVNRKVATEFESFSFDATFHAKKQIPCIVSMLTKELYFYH", "experiment": "Dose-response confirmation of uHTS inhibitor hits of Sentrin-Specific Protease 8 in a Caspase-3 Fluorescence assay.", "assay_type": "functional"}, "[6]": {"experiment": "AlphaScreen signal interference compounds, dose response, artefact control for ARNT-TACC3 interaction inhibitor project, biochemical, luminescence, cherry-pick (AID 651705);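 further: AlphaScreen bead proximity signal that flags compounds interfering with the detection technology; potency reflects signal decrease which marks the compound as an assay artifact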", "assay_type": "functional"}, "BJ [7]": {"tested_on": "BJ", "experiment": "cytotoxicity toward BJ-TERT fibroblasts, dose response, cell-based, RAS-independent, luminescence (AID 1933)", "assay_type": "functional", "conditions": "Homo sapiens"}, "cells": {"experiment": "cells", "assay_type": "functional, cell-based"}, "BJ [8]": {"tested_on": "BJ", "experiment": "cytotoxicity toward BJ-TERT-LT-ST fibroblasts, dose response, cell-based, RAS-independent, luminescence (AID 1935);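 further: BJ fibroblasts immortalized with TERT plus LT and ST oncogenes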", "assay_type": "functional", "conditions": "Homo sapiens"}, "Protein skinhead-1": {"molecular_target": "T4, Protein skinhead-1 (Caenorhabditis elegans, UniProt P34707)", "T4 sequence (P34707 whole entry)": "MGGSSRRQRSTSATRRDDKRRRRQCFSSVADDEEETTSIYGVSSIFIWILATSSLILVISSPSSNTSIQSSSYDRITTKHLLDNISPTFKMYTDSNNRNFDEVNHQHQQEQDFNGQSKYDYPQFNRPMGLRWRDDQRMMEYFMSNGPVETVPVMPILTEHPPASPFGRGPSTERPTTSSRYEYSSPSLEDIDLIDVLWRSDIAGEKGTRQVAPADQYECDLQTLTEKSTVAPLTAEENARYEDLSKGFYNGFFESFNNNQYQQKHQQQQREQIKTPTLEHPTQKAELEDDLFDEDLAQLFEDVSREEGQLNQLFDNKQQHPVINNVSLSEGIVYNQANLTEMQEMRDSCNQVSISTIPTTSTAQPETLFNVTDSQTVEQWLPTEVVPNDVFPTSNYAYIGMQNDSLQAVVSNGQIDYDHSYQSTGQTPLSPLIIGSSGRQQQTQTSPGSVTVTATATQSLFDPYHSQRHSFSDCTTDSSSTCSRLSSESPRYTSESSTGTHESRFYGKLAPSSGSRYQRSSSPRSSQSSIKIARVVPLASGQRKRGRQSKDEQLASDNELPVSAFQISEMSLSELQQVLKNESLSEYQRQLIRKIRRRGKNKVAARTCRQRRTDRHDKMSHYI", "assay_type": "functional"}, "Cytochrome P450 3A4": {"molecular_target": "Cytochrome P450 3A4 (Homo sapiens, UniProt P08684)", "sequence (P08684 whole entry)": "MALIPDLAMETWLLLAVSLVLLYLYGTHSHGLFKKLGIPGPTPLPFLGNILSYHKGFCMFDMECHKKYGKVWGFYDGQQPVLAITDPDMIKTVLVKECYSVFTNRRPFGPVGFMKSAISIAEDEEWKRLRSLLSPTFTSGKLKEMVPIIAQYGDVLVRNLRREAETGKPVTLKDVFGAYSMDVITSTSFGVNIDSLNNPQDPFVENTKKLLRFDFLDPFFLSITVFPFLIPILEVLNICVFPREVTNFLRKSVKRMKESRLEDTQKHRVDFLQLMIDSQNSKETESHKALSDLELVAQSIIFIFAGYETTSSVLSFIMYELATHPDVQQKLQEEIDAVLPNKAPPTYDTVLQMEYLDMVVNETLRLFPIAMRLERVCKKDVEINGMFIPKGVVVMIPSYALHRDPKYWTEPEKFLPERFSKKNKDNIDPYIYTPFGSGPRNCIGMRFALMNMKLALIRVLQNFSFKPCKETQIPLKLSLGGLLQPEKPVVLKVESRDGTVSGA"}}, "note": "Active and inactive are the calls of the source.", "data": [{"smiles": "CCc1nnc(NS(=O)(=O)c2ccc(NC(=S)NC(=O)/C=C/c3ccc(C(C)C)cc3)cc2)s1", "values": [{"measurement": "CC50", "setting": "[1]", "value": "17.2 µM (active)"}]}, {"smiles": "O=C1C(Nc2ccc(O)cc2)=C/C(=N/S(=O)(=O)c2cccs2)c2ccccc21", "values": [{"measurement": "EC50", "setting": "[2]", "value": "5.59 µM (active)"}, {"measurement": "IC50", "setting": "[3]", "value": "1.65 µM (active)"}, {"measurement": "IC50", "setting": "Nonstructural protein 1", "value": "17.9 µM (active)"}, {"measurement": "CC50", "setting": "[4]", "value": "2.59 µM (active)"}, {"measurement": "IC50", "setting": "[5]", "value": "41.8 µM (active)"}]}, {"smiles": "COC(=O)C(O)(c1c(C)[nH]n(-c2ccccc2)c1=O)C(F)(F)F", "note": "(stereo not drawn)", "values": [{"measurement": "IC50", "setting": "Caspase-3", "value": "68.9 µM (inactive)"}]}, {"smiles": "COc1ccc(S(=O)(=O)Nc2cc(SCC(=O)O)c(O)c3ccccc23)cc1", "values": [{"measurement": "AC50", "setting": "[6]", "value": "104 µM (active)"}]}, {"smiles": "O=C(/C=C/c1ccco1)Nc1ccc(Oc2ccccc2)cc1", "values": [{"measurement": "EC50", "setting": "BJ [7]", "value": "> 150 µM (not active)"}, {"measurement": "EC50", "setting": "cells", "value": "> 350 µM (not active)"}, {"measurement": "EC50", "setting": "BJ [8]", "value": "> 150 µM (inconclusive)"}, {"measurement": "IC50", "setting": "Protein skinhead-1", "value": "> 100 µM (inactive)"}, {"measurement": "AC50", "setting": "Cytochrome P450 3A4", "value": "39.8 µM (inconclusive)"}]}]}
